What was measured:
[1] = Relative solubility by turbidity in aqueous buffers (pH 1.5, 4.5, 6.8, 7.4); assay type: physicochemical; conditions: for turbidity threshold (L, M, H) 1.4: pH 1.5 buffer (SGF); for turbidity threshold (L, M, H) 4.5: pH 4.5 buffer (SIF); for turbidity threshold (L, M, H) 6.8: pH 6.8 buffer (SIF); for turbidity threshold (L, M, H) 7.4: pH 7.4 buffer (HEPES)
Experimental: As an indication of relative solubility, the turbidity of compounds in aqueous solutions is assessed. To assess possible compound properties in different physiological compartments, such as stomach, intestine, and blood, a series of aqueous buffers with varying pH is used. Thus each compound is diluted into four different physiologically relevant buffers and solution turbidity is measured by spectrophotometry.
Compounds are dissolved at a concentration of 25 mM in dimethyl sulfoxide, then serially diluted 1:1 into a 96 well plate, diluting 10 times in pure dimethyl sulfoxide, with the final well of each row a dimethyl sulfoxide blank. In an assay plate, 99 μL of appropriate buffer is added to each well, and 1 μL of each sample dilution is added to the buffer, achieving a range of final total concentrations in aqueous solutions having different pH. The buffers used are Simulated Gastric Fluid (SGF-pH 1.5) 0.5M NaCl, pH 1.5; Simulated Intestinal fluid (SIF-pH 4.5 and pH 6.8) 0.05M NaH2PO4, pH 4.5 and 6.8; and Hepes Buffer (HEPES-pH 7.4) 10 mM HEPES, 150 mM NaCl, pH 7.4. Control compounds pyrene, estriol and propranolol HCl are also assessed. Plates are spun and then mixed for 1 minute, and the absorbance is read using a Tecan Safire II to read wavelengths in the visible range (490, 535, and 650 nm) at four locations per well, reflecting the degree of turbidity present. The average optical density for each wavelength in each well is graphed vs. compound concentration, and the concentration at which the curve crosses a threshold O.D. of 0.01 for each wavelength is reported as the endpoint turbidity assay result. The average of the three wavelengths is used to compare turbidity of compounds. Compounds are considered to have low solubility if the threshold concentration is <31.3 μM, moderate solubility if the threshold concentration is 31.3 μM to 250 μM, and high solubility if the threshold concentration is >250 μM.
The following table indicates the relative solubility (L=low, M=moderate, H=high) based on turbidity threshold concentration at each pH for exemplary compounds according to the invention: […]

B-Raf = B-Raf (Homo sapiens, UniProt P15056); experiment: B-Raf kinase activity assay (AlphaScreen, biotin-MEK1 substrate); conditions: 100 μM ATP, 100 nM biotin-MEK1, 45 minutes at room temperature; read-out: Biochemical activity (IC50 μM) B-Raf
B-Raf, sequence (P15056 whole entry): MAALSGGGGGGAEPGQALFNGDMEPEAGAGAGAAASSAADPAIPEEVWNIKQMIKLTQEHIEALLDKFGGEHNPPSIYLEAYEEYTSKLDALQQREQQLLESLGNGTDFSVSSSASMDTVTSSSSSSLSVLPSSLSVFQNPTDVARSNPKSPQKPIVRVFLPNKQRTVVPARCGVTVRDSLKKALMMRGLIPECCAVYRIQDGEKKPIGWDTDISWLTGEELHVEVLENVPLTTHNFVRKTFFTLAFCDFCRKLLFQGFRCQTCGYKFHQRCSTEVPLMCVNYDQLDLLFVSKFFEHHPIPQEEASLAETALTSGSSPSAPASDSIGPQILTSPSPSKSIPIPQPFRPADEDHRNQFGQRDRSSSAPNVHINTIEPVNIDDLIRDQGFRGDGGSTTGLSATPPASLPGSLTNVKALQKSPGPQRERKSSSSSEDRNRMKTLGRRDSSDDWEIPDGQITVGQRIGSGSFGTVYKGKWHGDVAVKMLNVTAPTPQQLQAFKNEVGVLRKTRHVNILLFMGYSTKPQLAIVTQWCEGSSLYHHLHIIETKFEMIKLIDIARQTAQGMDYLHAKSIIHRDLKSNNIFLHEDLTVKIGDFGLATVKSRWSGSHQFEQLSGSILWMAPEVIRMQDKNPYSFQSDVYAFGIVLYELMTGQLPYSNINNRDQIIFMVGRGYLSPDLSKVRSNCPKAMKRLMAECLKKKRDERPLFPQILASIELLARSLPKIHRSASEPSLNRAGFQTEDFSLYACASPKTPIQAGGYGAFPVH
Experimental: (§1) Assays for biochemical and cell based activity are known in the art, for example, as described in PCT publication WO 2007/002433, the disclosure of which is hereby incorporated by reference as it relates to such assays. For example, the biochemical activity IC50 values are determined with respect to inhibition of B-Raf kinase activity, c-Raf-1 kinase activity, or B-Raf V600E kinase activity, where inhibition of phosphorylation of a peptide substrate is measured as a function of compound concentration. Compounds to be tested are diluted in dimethyl sulfoxide to a concentration of 0.1 mM. These are serially diluted 15 μL into 30 μL of dimethyl sulfoxide seven times in 96 well plates for a total of 8 dilution points, and for each dilution point 1 μL is added to a well of an assay plate. Plates are prepared such that each well in a 384 well plate contains 1 μL of compound in 10 μL, volume with 0.1 ng Raf enzyme (i.e. any of B-Raf, c-Raf-1 or B-Raf V600E, Upstate Biotechnology or prepared by methods known to one of skill in the art), 50 mM HEPES, pH 7.0, 50 mM NaCl, 2 mM MgCl2, 1 mM MnCl2, 0.01% Tween-20, 1 mM DTT, and 100 nM biotin-MEK1 as substrate. The reaction is started with addition of 10 μL of 200 μM ATP (i.e. final 100 μM ATP). After incubation of the kinase reaction for 45 minutes at room temperature, 5 μL/well of Stop Solution is added (25 mM Hepes pH 7.5, 100 mM EDTA, 0.01% BSA with donor beads (Streptavidin coated beads, Perkin Elmer), acceptor beads (Protein A coated, Perkin Elmer), and anti phosphor MEK1/2 antibody (CellSignal), each at final concentration 10 μg/mL). The plates are incubated for 3 hours at room temperature and read on Envision reader (Perkin Elmer). Phosphorylation of Mek1 results in binding of the anti-phosphor-MEK1/2 antibody and association of the donor and acceptor beads such that signal correlates with kinase activity. The signal vs. compound concentration is used to determine the IC50.

B-Raf V600E = B-Raf V600E (Homo sapiens, UniProt P15056, V600E); experiment: B-Raf V600E kinase activity assay (AlphaScreen, biotin-MEK1 substrate); conditions: 100 μM ATP, 100 nM biotin-MEK1, 45 minutes at room temperature, read-out: Biochemical activity (IC50 μM) V600E
B-Raf V600E, sequence (P15056 whole entry V600E): as the sequence (P15056 whole entry) above, with V600E counted along it
Experimental: as §1

| SMILES | turbidity threshold (L, M, H) 1.4 [1] | turbidity threshold (L, M, H) 4.5 [1] | turbidity threshold (L, M, H) 6.8 [1] | turbidity threshold (L, M, H) 7.4 [1] | IC50 (B-Raf) [µM] | IC50 (B-Raf V600E) [µM] |
| --- | --- | --- | --- | --- | --- | --- |
| CCCS(=O)(=O)Nc1ccc(F)c(C(=O)c2c[nH]c3ncc(-c4ccc5cnn(C)c5c4)cc23)c1F [P-0027, Propane-1-sulfonic acid {2,4-difluoro-3-[5-(1-methyl-1H-indazol-6-yl)-1H-pyrrolo[2,3-b]pyridine-3-carbonyl]-phenyl}-amide] | L (low solubility if the threshold concentration is <31.3 μM) | L (low solubility if the threshold concentration is <31.3 μM) | L (low solubility if the threshold concentration is <31.3 μM) | L (low solubility if the threshold concentration is <31.3 μM) |  |  |
| CCCS(=O)(=O)Nc1ccc(F)c(C(=O)c2c[nH]c3ncc(-c4ccc5c(cnn5C)c4)cc23)c1F [P-0028, Propane-1-sulfonic acid {2,4-difluoro-3-[5-(1-methyl-1H-indazol-5-yl)-1H-pyrrolo[2,3-b]pyridine-3-carbonyl]-phenyl}-amide] | L (low solubility if the threshold concentration is <31.3 μM) | L (low solubility if the threshold concentration is <31.3 μM) | L (low solubility if the threshold concentration is <31.3 μM) | L (low solubility if the threshold concentration is <31.3 μM) |  |  |
| CC(C)(C)OC(=O)N1CCC(n2cc(-c3cnc4[nH]cc(C(=O)c5c(F)ccc(NS(=O)(=O)c6ccc(C(F)(F)F)cc6)c5F)c4c3)cn2)CC1 [P-1003, 4-(4-{3-[2,6-Difluoro-3-(4-trifluoromethyl-benzenesulfonylamino)-benzoyl]-1H-pyrrolo[2,3-b]pyridin-5-yl}-pyrazol-1-yl)-piperidine-1-carboxylic acid tert-butyl ester] |  |  |  |  | < 0.1 | < 10 |
| CCCS(=O)(=O)Nc1ccc(F)c(C(=O)c2c[nH]c3ncc(-c4cnc(NC5CC5)nc4)cc23)c1F [P-1504, Propane-1-sulfonic acid {3-[5-(2-cyclopropylamino-pyrimidin-5-yl)-1H-pyrrolo[2,3-b]pyridine-3-carbonyl]-2,4-difluoro-phenyl}-amide] | L (low solubility if the threshold concentration is <31.3 μM) | M (moderate solubility if the threshold concentration is 31.3 μM to 250 μM) | M (moderate solubility if the threshold concentration is 31.3 μM to 250 μM) | M (moderate solubility if the threshold concentration is 31.3 μM to 250 μM) |  |  |
| CCCS(=O)(=O)Nc1ccc(F)c(C(=O)c2c[nH]c3ncc(-c4cnc(NCCOC)nc4)cc23)c1F [P-1505, Propane-1-sulfonic acid (2,4-difluoro-3-{5-[2-(2-methoxy-ethylamino)-pyrimidin-5-yl]-1H-pyrrolo[2,3-b]pyridine-3-carbonyl}-phenyl)-amide] | L (low solubility if the threshold concentration is <31.3 μM) | L (low solubility if the threshold concentration is <31.3 μM) | L (low solubility if the threshold concentration is <31.3 μM) | M (moderate solubility if the threshold concentration is 31.3 μM to 250 μM) |  |  |
| COCCNc1ncc(-c2cnc3[nH]cc(C(=O)c4c(F)ccc(NS(=O)(=O)c5cc(F)ccc5F)c4F)c3c2)cn1 [P-1507, N-(2,4-Difluoro-3-{5-[2-(2-methoxy-ethylamino)-pyrimidin-5-yl]-1H-pyrrolo[2,3-b]pyridine-3-carbonyl}-phenyl)-2,5-difluoro-benzenesulfonamide] | L (low solubility if the threshold concentration is <31.3 μM) | L (low solubility if the threshold concentration is <31.3 μM) | L (low solubility if the threshold concentration is <31.3 μM) | L (low solubility if the threshold concentration is <31.3 μM) |  |  |
| CCCS(=O)(=O)Nc1ccc(F)c(C(=O)c2c[nH]c3ncc(-c4cnc(N5CCC5)nc4)cc23)c1F [P-1512, Propane-1-sulfonic acid {3-[5-(2-azetidin-1-yl-pyrimidin-5-yl)-1H-pyrrolo[2,3-b]pyridine-3-carbonyl]-2,4-difluoro-phenyl}-amide] | L (low solubility if the threshold concentration is <31.3 μM) | L (low solubility if the threshold concentration is <31.3 μM) | L (low solubility if the threshold concentration is <31.3 μM) | L (low solubility if the threshold concentration is <31.3 μM) |  |  |
| CCCS(=O)(=O)Nc1ccc(F)c(C(=O)c2c[nH]c3ncc(-c4cnc(NC)nc4)cc23)c1F [P-1514, Propane-1-sulfonic acid {2,4-difluoro-3-[5-(2-methylamino-pyrimidin-5-yl)-1H-pyrrolo[2,3-b]pyridine-3-carbonyl]-phenyl}-amide] | L (low solubility if the threshold concentration is <31.3 μM) | L (low solubility if the threshold concentration is <31.3 μM) | M (moderate solubility if the threshold concentration is 31.3 μM to 250 μM) | L (low solubility if the threshold concentration is <31.3 μM) |  |  |
| CCCS(=O)(=O)Nc1ccc(F)c(C(=O)c2c[nH]c3ncc(-c4cnc(NCCN(C)C)nc4)cc23)c1F [P-1515, Propane-1-sulfonic acid (3-{5-[2-(2-dimethylamino-ethylamino)-pyrimidin-5-yl]-1H-pyrrolo[2,3-b]pyridine-3-carbonyl}-2,4-difluoro-phenyl)-amide] | L (low solubility if the threshold concentration is <31.3 μM) | M (moderate solubility if the threshold concentration is 31.3 μM to 250 μM) | M (moderate solubility if the threshold concentration is 31.3 μM to 250 μM) | M (moderate solubility if the threshold concentration is 31.3 μM to 250 μM) |  |  |
| CCCS(=O)(=O)Nc1ccc(F)c(C(=O)c2c[nH]c3ncc(-c4cnc(NCCCOC)nc4)cc23)c1F [P-1516, Propane-1-sulfonic acid (2,4-difluoro-3-{5-[2-(3-methoxy-propylamino)-pyrimidin-5-yl]-1H-pyrrolo[2,3-b]pyridine-3-carbonyl}-phenyl)-amide] | L (low solubility if the threshold concentration is <31.3 μM) | L (low solubility if the threshold concentration is <31.3 μM) | L (low solubility if the threshold concentration is <31.3 μM) | L (low solubility if the threshold concentration is <31.3 μM) |  |  |
